Results taken from patent US12109283B2, “Safe and ecofriendly persistent sanitizing gel for topical application” (GALAXY SURFACTANTS LTD., priority 2021, dated 2024).

Test: UV absorbing power (E1% 1 cm)
Format: physicochemical
Settings: at the λmax printed in Table 1 (290 nm or 305 nm)
Description: Fatty acids of Tung seed oil have good UV absorbing power as is evident from its conjugated system and from its E1% 1 cm of 1600 at 270 nm and 360 at 290 nm. These UV absorbing fatty acids can not only protect the ingredients of the formulations but also the skin and hair from the ravages of solar radiation when the formulations are applied. […] UV B radiation of solar spectrum is the most damaging since it causes skin cancer.
Both homosalate and Octyl salicylates are popular sunscreen molecules all over the world.

With `CC1CC(OC(=O)c2ccccc2O)CC(C)(C)C1` (stereo not shown) [Homosalate (118-56-9), Homosalate] the E1 % was 180.
